Tests used:
human P2X2/3 receptor = molecular target: T1, human P2X2/3 receptor (Homo sapiens, UniProt P56373+Q9UBL9); assay: P2X3/P2X2/3 FLIPR (Fluorometric Imaging Plate Reader) Assay, P2X2/3; format: cell-based; settings: CHO-K1 cells transfected with human P2X2/3; agonist α,β-meATP 5 μM; Table 1; read-out: P2X2/3 pKi (converted)
T1 construct: expressed in transfected cells; host or cells: CHO-K1
T1 sequence (Q9UBL9 1-471): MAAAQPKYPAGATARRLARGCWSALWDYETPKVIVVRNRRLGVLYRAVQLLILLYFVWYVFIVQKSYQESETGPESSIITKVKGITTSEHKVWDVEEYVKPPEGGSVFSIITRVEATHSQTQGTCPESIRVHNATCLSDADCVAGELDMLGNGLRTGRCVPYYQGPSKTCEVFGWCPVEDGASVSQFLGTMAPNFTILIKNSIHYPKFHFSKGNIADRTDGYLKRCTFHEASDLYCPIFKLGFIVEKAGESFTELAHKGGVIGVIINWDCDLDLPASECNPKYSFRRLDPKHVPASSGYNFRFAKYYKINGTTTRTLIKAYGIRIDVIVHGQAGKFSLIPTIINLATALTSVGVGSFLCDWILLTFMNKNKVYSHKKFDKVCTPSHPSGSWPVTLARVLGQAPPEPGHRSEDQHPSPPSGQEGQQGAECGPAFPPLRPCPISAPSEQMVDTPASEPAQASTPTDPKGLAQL
T1 sequence (P56373 1-397): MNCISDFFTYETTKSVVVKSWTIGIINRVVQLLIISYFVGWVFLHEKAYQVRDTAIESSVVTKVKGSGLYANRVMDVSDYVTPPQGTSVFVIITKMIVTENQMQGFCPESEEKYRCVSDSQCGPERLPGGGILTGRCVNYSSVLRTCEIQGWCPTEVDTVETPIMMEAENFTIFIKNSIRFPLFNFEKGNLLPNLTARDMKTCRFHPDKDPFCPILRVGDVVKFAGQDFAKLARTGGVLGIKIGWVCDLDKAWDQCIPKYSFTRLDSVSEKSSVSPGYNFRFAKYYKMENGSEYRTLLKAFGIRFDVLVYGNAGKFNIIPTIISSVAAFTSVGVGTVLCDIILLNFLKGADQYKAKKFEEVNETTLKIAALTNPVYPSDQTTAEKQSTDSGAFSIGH
Procedure, shortened: (§1)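 CHO-K1 cells expressing rat P2X3 or human P2X2/3 were loaded with Fluo-3 AM (2 μM, 1 h, 37 °C) and preincubated with compound for 20 min at room temperature. Calcium influx was evoked by α,β-meATP (1 μM for P2X3, 5 μM for P2X2/3) and peak fluorescence was fitted by nonlinear regression to inhibition curves.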

rat P2X3 receptor = molecular target: T2, rat P2X3 receptor (Rattus norvegicus, UniProt P49654); assay: P2X3/P2X2/3 FLIPR (Fluorometric Imaging Plate Reader) Assay, P2X3; format: cell-based; settings: CHO-K1 cells transfected with rat P2X3; agonist α,β-meATP 1 μM; Table 1; read-out: P2X3 pKi (converted)
T2 construct: expressed in transfected cells; host or cells: CHO-K1
T2 sequence (P49654 1-397): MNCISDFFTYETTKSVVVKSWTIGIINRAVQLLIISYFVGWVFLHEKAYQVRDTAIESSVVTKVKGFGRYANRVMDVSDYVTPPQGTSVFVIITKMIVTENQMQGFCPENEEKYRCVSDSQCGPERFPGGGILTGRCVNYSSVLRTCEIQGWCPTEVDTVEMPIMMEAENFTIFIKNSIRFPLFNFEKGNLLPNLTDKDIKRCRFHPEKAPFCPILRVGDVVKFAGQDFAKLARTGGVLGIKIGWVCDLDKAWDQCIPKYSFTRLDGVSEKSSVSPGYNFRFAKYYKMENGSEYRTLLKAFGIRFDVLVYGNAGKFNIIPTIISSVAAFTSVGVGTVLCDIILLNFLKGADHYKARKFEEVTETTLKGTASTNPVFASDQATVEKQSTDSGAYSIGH
Procedure, shortened: as §1

| Ki (human P2X2/3 receptor) [nM] | Ki (rat P2X3 receptor) [nM] | SMILES |
| --- | --- | --- |
| 3550 | 41.7 | C[C@@H](CO)NC(=O)c1cc(-c2ccc(Cl)cn2)cc(-n2ncnc2C(C)(C)C)c1 [Compound 85, 3-(5-tert-Butyl-[1,2,4]triazol-1-yl)-5-(5-chloro-pyridin-2-yl)-N-((S)-2-hydroxy-1-methyl-ethyl)-benzamide] |
| 33.1 | 2.29 | Cc1ccc(-c2cc(C(=O)NCc3cnc(C)cn3)cc(-n3ncnc3C3CCC3)c2)nc1 [Compound 86, 3-(5-Cyclobutyl-[1,2,4]triazol-1-yl)-N-(5-methyl-pyrazin-2-ylmethyl)-5-(5-methyl-pyridin-2-yl)-benzamide] |
| 35.5 | 2.63 | Cc1ccc(-c2cc(C(=O)NC(C)c3cnccn3)cc(-n3ncnc3C3CCC3)c2)nc1 (centres unmarked) [Compound 87, 3-(5-Cyclobutyl-[1,2,4]triazol-1-yl)-5-(5-methyl-pyridin-2-yl)-N-(1-pyrazin-2-yl-ethyl)-benzamide] |
| 89.1 | 4.17 | Cc1cnc(CNC(=O)c2cc(-c3ccc(Cl)cn3)cc(-n3ncnc3CC(C)C)c2)cn1 [Compound 89, 3-(5-Chloro-pyridin-2-yl)-5-(5-isobutyl-[1,2,4]triazol-1-yl)-N-(5-methyl-pyrazin-2-ylmethyl)-benzamide] |
| 646 | 4.07 | CC(C)Cc1ncnn1-c1cc(C(=O)N[C@@H](C)CO)cc(-c2ccc(Cl)cn2)c1 [Compound 90, 3-(5-Chloro-pyridin-2-yl)-N-((S)-2-hydroxy-1-methyl-ethyl)-5-(5-isobutyl-[1,2,4]triazol-1-yl)-benzamide] |
| 2950 | 31.6 | CC(NC(=O)c1cc(-c2ccc(Cl)cn2)cc(-n2ncnc2CF)c1)c1cnccn1 (centres unmarked) [Compound 91, 3-(5-Chloro-pyridin-2-yl)-5-(5-fluoromethyl-[1,2,4]triazol-1-yl)-N-(1-pyrazin-2-yl-ethyl)-benzamide] |
| 2570 | 21.4 | Cc1cnc(CNC(=O)c2cc(-c3ccc(Cl)cn3)cc(-n3ncnc3CF)c2)cn1 [Compound 92, 3-(5-Chloro-pyridin-2-yl)-5-(5-fluoromethyl-[1,2,4]triazol-1-yl)-N-(5-methyl-pyrazin-2-ylmethyl)-benzamide] |
| 10000 | 575 | C[C@@H](CO)NC(=O)c1cc(-c2ccc(Cl)cn2)cc(-n2ncnc2CF)c1 [Compound 93, 3-(5-Chloro-pyridin-2-yl)-5-(5-fluoromethyl-[1,2,4]triazol-1-yl)-N-((S)-2-hydroxy-1-methyl-ethyl)-benzamide] |
| 10000 | 12.3 | Cc1ccc(-c2cc(C(=O)N[C@@H](C)CO)cc(-n3ncnc3C(C)(C)C)c2)nc1 [Compound 94, 3-(5-tert-Butyl-[1,2,4]triazol-1-yl)-N-((S)-2-hydroxy-1-methyl-ethyl)-5-(5-methyl-pyridin-2-yl)-benzamide] |
| 117 | 5.37 | Cc1ccc(-c2cc(C(=O)NC(C)c3cnccn3)cc(-n3ncnc3C(C)(C)C)c2)nc1 (centres unmarked) [Compound 95, 3-(5-tert-Butyl-[1,2,4]triazol-1-yl)-5-(5-methyl-pyridin-2-yl)-N-(1-pyrazin-2-yl-ethyl)-benzamide] |
| 1260 | 4.57 | Cc1ccc(-c2cc(C(=O)NC3CC3)cc(-n3ncnc3C(F)(F)F)c2)nc1 [Compound 96, N-Cyclopropyl-3-(5-methyl-pyridin-2-yl)-5-(5-trifluoromethyl-[1,2,4]triazol-1-yl)-benzamide] |
| 4680 | 8.13 | Cc1ccc(-c2cc(C(=O)N[C@@H](C)CO)cc(-n3ncnc3C(F)(F)F)c2)nc1 [Compound 97, N-((S)-2-Hydroxy-1-methyl-ethyl)-3-(5-methyl-pyridin-2-yl)-5-(5-trifluoromethyl-[1,2,4]triazol-1-yl)-benzamide] |
| 45.7 | 2.24 | Cc1ccc(-c2cc(C(=O)NC(C)c3cnccn3)cc(-n3ncnc3C(F)(F)F)c2)nc1 (centres unmarked) [Compound 98, 3-(5-Methyl-pyridin-2-yl)-N-(1-pyrazin-2-yl-ethyl)-5-(5-trifluoromethyl-[1,2,4]triazol-1-yl)-benzamide] |
| 36.3 | 3.24 | Cc1ccc(-c2cc(C(=O)NCc3cnc(C)cn3)cc(-n3ncnc3C(F)(F)F)c2)nc1 [Compound 99, N-(5-Methyl-pyrazin-2-ylmethyl)-3-(5-methyl-pyridin-2-yl)-5-(5-trifluoromethyl-[1,2,4]triazol-1-yl)-benzamide] |
| 2040 | 10.2 | Cc1ccc(-c2cc(C(=O)NC(C)c3cnccn3)cc(-n3ncnc3C)c2)nc1 (centres unmarked) [Compound 100, 3-(5-Methyl-pyridin-2-yl)-5-(5-methyl-[1,2,4]triazol-1-yl)-N-(1-pyrazin-2-yl-ethyl)-benzamide] |
| 1150 | 7.94 | Cc1ccc(-c2cc(C(=O)NCc3cnc(C)cn3)cc(-n3ncnc3C)c2)nc1 [Compound 101, N-(5-Methyl-pyrazin-2-ylmethyl)-3-(5-methyl-pyridin-2-yl)-5-(5-methyl-[1,2,4]triazol-1-yl)-benzamide] |
| 10000 | 263 | Cc1ccc(-c2cc(C(=O)N[C@@H](C)CO)cc(-n3ncnc3C)c2)nc1 [Compound 102, N-((S)-2-Hydroxy-1-methyl-ethyl)-3-(5-methyl-pyridin-2-yl)-5-(5-methyl-[1,2,4]triazol-1-yl)-benzamide] |
| 10000 | 724 | Cc1ccc(-c2cc(C(=O)NC(C)CN(C)C)cc(-n3ncnc3C(C)N(C)C)c2)cc1 (centres unmarked) [Compound 103, 5-[5-(1-Dimethylamino-ethyl)-[1,2,4]triazol-1-yl]-4′-methyl-biphenyl-3-carboxylic acid (2-dimethylamino-1-methyl-ethyl)-amide] |
| 407 | 7.76 | Cc1ccc(-c2cc(C(=O)NC3CC3)cc(-n3ncnc3C(C)N(C)C)c2)cc1 (centres unmarked) [Compound 104, 5-[5-(1-Dimethylamino-ethyl)-[1,2,4]triazol-1-yl]-4′-methyl-biphenyl-3-carboxylic acid cyclopropylamide] |
| 646 | 5.25 | Cc1ccc(-c2cc(C(=O)N[C@@H](C)CO)cc(-n3ncnc3C(C)N(C)C)c2)cc1 (stereo partly drawn) [Compound 105, 5-[5-(1-Dimethylamino-ethyl)-[1,2,4]triazol-1-yl]-4′-methyl-biphenyl-3-carboxylic acid ((S)-2-hydroxy-1-methyl-ethyl)-amide] |
| 759 | 19.1 | CCc1ncnn1-c1cc(C(=O)NC(C)c2cnccn2)cc(-c2ccc(Cl)cn2)c1 (centres unmarked) [Compound 106, 3-(5-Chloro-pyridin-2-yl)-5-(5-ethyl-[1,2,4]triazol-1-yl)-N-(1-pyrazin-2-yl-ethyl)-benzamide] |
| 10000 | 148 | CCc1ncnn1-c1cc(C(=O)N[C@@H](C)CO)cc(-c2ccc(Cl)cn2)c1 [Compound 107, 3-(5-Chloro-pyridin-2-yl)-5-(5-ethyl-[1,2,4]triazol-1-yl)-N-((S)-2-hydroxy-1-methyl-ethyl)-benzamide] |
| 4270 | 97.7 | CCc1ncnn1-c1cc(C(=O)NC2CC2)cc(-c2ccc(Cl)cn2)c1 [Compound 108, 3-(5-Chloro-pyridin-2-yl)-N-cyclopropyl-5-(5-ethyl-[1,2,4]triazol-1-yl)-benzamide] |
| 372 | 5.5 | CCCc1ncnn1-c1cc(C(=O)NCc2cnc(C)cn2)cc(-c2ccc(Cl)cn2)c1 [Compound 109, 3-(5-Chloro-pyridin-2-yl)-N-(5-methyl-pyrazin-2-ylmethyl)-5-(5-propyl-[1,2,4]triazol-1-yl)-benzamide] |
| 355 | 7.24 | CCCc1ncnn1-c1cc(C(=O)NC(C)c2cnccn2)cc(-c2ccc(Cl)cn2)c1 (centres unmarked) [Compound 110, 3-(5-Chloro-pyridin-2-yl)-5-(5-propyl-[1,2,4]triazol-1-yl)-N-(1-pyrazin-2-yl-ethyl)-benzamide] |

Reference: patent publication US8440708B2, “Triazole-substituted arylamides as P2X3 and P2X2/3 antagonists” (Roche Palo Alto LLC, priority 2007, dated 2013)
